The results in this text go back to ChEMBL document CHEMBL1201862, “PubChem BioAssay data set” (2004).

Test systems include SK-MEL-5; UACC-257; DU-145; UACC-62; IGROV-1; SF-268; OVCAR-8; MDA-N; OVCAR-3; T47D; BT-549; NCI-H460; Malme-3M; SK-MEL-28; CAKI-1; A498; HOP-62; OVCAR-5; KM12; Hs-578T.
What all share (assay): inhibition of tumour cell growth, NCI panel, 48 h

Counter-ions that a name gives are not always drawn.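 1) Cells in 96-well plates. 2) Compound, 48 h, 5 concentrations. 3) Linear interpolation between surrounding doses. 4) Unreached endpoint = highest concentration. GI50 is the concentration that inhibits growth by half.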 Calls of active or inactive are those of the source. No stated cut-off is given here; in the data, active = GI50 up to about 1.1 µM and inactive = higher. Starred links: 1 amine or outer side, 2 acyl side, 3 side chain; linkers in the order of their positions; H or OH if unused. Residues, ends and D or L forms follow the SMILES beside them. *: point of attachment. γGlu = O=C(O)[CH](CCC(=O)[*:2])N[*:1]; NHOH = ON*

`COc1ccc(C2=NN(C(=O)c3ccccc3)C(O)(c3cc(F)c(Cl)cc3Cl)C2)cc1OC` (centres undefined): the GI50 is > 100 µM (inactive) in the experiment with SK-MEL-5; 60.4 µM (inactive) in the experiment with UACC-257; 39 µM (inactive) in the experiment on DU-145; 45.6 µM (inactive) in the experiment with UACC-62; 40.1 µM (inactive) in the experiment on IGROV-1; 55.5 µM (inactive) with SF-268. The GI50 with OVCAR-8 was 48.4 µM (inactive); in the experiment with MDA-N it was 57.5 µM (inactive); in the experiment with OVCAR-3 it was 20.4 µM (inactive); in the experiment with T47D, 50.8 µM (inactive); in the experiment on BT-549, > 100 µM (inactive); in the experiment with NCI-H460, 83.2 µM (inactive). The GI50 in the experiment on Malme-3M is 57.9 µM (inactive); in the experiment with SK-MEL-28, 49.8 µM (inactive); in the experiment with CAKI-1, 27.5 µM (inactive); with A498, 32.1 µM (inactive); in the experiment with HOP-62, 17.2 µM (inactive); in the experiment with OVCAR-5 it was 71.3 µM (inactive). In addition, the GI50 is > 100 µM (inactive) with KM12 and 34.5 µM (inactive) in the experiment with Hs-578T.
For the molecule `O=C1N/C(=N/N=C/C(O)C(O)C(O)C(O)CO)N/C1=C\c1c[nH]c2ccccc12` (centres undefined), the GI50 in the experiment with SK-MEL-5, in the experiment with UACC-257, in the experiment with DU-145, in the experiment on UACC-62, in the experiment on IGROV-1 and in the experiment on SF-268 was > 100 µM (inactive) in each case. The GI50 in the experiment with OVCAR-8 is > 100 µM (inactive); in the experiment with MDA-N it was > 100 µM (inactive); in the experiment on OVCAR-3, 62.8 µM (inactive); with T47D it was 97.7 µM (inactive); in the experiment on BT-549 it was > 100 µM (inactive); with NCI-H460, > 100 µM (inactive). Also, the GI50 in the experiment with Malme-3M is > 100 µM (inactive); in the experiment on SK-MEL-28 it was > 100 µM (inactive); with CAKI-1 it was > 100 µM (inactive); in the experiment with A498, 38.3 µM (inactive); in the experiment with HOP-62, > 100 µM (inactive); in the experiment on OVCAR-5, > 100 µM (inactive). The GI50 in the experiment with KM12 was 52.4 µM (inactive); in the experiment with Hs-578T, > 100 µM (inactive).
For `CSc1ncc2c(n1)-c1ccccc1OC2N1CCCCC1` (centres undefined), the GI50 is 20.3 µM (inactive) in the experiment on SK-MEL-5; 34.6 µM (inactive) with UACC-257; 34.4 µM (inactive) in the experiment on DU-145; 22.4 µM (inactive) in the experiment with UACC-62; 40.1 µM (inactive) in the experiment with IGROV-1; 45 µM (inactive) in the experiment on SF-268. The GI50 is 63.8 µM (inactive) with OVCAR-8; 38.1 µM (inactive) in the experiment on MDA-N; 38.5 µM (inactive) with OVCAR-3; 27.3 µM (inactive) with T47D; 24.3 µM (inactive) with BT-549; 30.4 µM (inactive) in the experiment with NCI-H460. Also, the GI50 was 21.7 µM (inactive) in the experiment on CAKI-1; 22.2 µM (inactive) in the experiment on A498; 42 µM (inactive) in the experiment with OVCAR-5; 38.5 µM (inactive) in the experiment with KM12; 26.9 µM (inactive) in the experiment with Hs-578T.
With `C[C@@H]1CCC2[C@@H](C)[C@@H](OCCO[C@H]3OC4O[C@@]5(C)CCC6[C@H](C)CCC([C@H]3C)[C@@]46OO5)OC3O[C@@]4(C)CCC1[C@]32OO4` (some centres undefined), the GI50 with SK-MEL-5 is 0.301 µM (active); with UACC-257, 0.39 µM (active); in the experiment on DU-145, 0.171 µM (active); with UACC-62 it was 0.279 µM (active); with IGROV-1, 0.0652 µM (active); in the experiment with SF-268, 0.233 µM (active). For the same molecule, the GI50 in the experiment on OVCAR-8 is 0.0982 µM (active); in the experiment with MDA-N it was 0.219 µM (active); in the experiment with T47D it was 0.0263 µM (active); with BT-549, 0.883 µM (active); in the experiment on NCI-H460 it was 0.151 µM (active); in the experiment on Malme-3M it was 0.182 µM (active). For the same molecule, the GI50 in the experiment with SK-MEL-28 is 2.86 µM (inactive); with CAKI-1, 0.0652 µM (active); in the experiment with A498, 1.92 µM (inactive); with HOP-62, 1.34 µM (inactive); in the experiment with OVCAR-5, 0.0826 µM (active); in the experiment with KM12 it was 0.056 µM (active). Further, in the experiment on Hs-578T, the GI50 is 0.211 µM (active).
Turning to `C/C(=C\CBr)CCC(Br)C(C)(C)Br` (centres undefined), the GI50 with SK-MEL-5, in the experiment with UACC-257, in the experiment with DU-145, in the experiment with UACC-62, in the experiment with IGROV-1 and in the experiment with SF-268 was > 100 µM (inactive) throughout. The GI50 with OVCAR-8, in the experiment with MDA-N, in the experiment on OVCAR-3, in the experiment on T47D, with BT-549 and in the experiment on NCI-H460 was > 100 µM (inactive) in each case. Moreover, the GI50 with Malme-3M, with SK-MEL-28, with A498, with HOP-62, in the experiment on OVCAR-5 and in the experiment on KM12 was > 100 µM (inactive) each time. Besides, in the experiment on Hs-578T, the GI50 was > 100 µM (inactive).
For `Cn1c(=O)c2[nH]c(/N=N\n3ccc4ccccc43)nc2n(C)c1=O`, the GI50 with SK-MEL-5, in the experiment on UACC-257, in the experiment on DU-145, in the experiment with UACC-62, in the experiment on SF-268 and with OVCAR-8 was > 100 µM (inactive) each time. Besides, the GI50 with MDA-N, in the experiment on OVCAR-3, with T47D, in the experiment on BT-549, with NCI-H460 and with Malme-3M was > 100 µM (inactive) throughout. In addition, the GI50 with SK-MEL-28, in the experiment with CAKI-1, with A498, in the experiment on HOP-62, in the experiment with OVCAR-5 and with KM12 was > 100 µM (inactive) each time. Also, the GI50 with Hs-578T is > 100 µM (inactive).
Regarding `COc1ccc(Cc2nccc3cc(OC)c(OC)cc23)cc1OC` [PAPAVERINE HYDROCHLORIDE], the GI50 is 16.6 µM (inactive) in the experiment with SK-MEL-5; > 100 µM (inactive) with UACC-257; > 100 µM (inactive) with DU-145; > 100 µM (inactive) with UACC-62; > 100 µM (inactive) in the experiment with IGROV-1; > 100 µM (inactive) in the experiment on SF-268. The GI50 in the experiment with OVCAR-8 was 64.9 µM (inactive); in the experiment on MDA-N, 94 µM (inactive); with OVCAR-3, > 100 µM (inactive); with T47D it was 19.5 µM (inactive); with BT-549 it was 53.8 µM (inactive); in the experiment on NCI-H460 it was 19 µM (inactive). Further, the GI50 with SK-MEL-28 was > 100 µM (inactive); with CAKI-1 it was 47.3 µM (inactive); in the experiment with A498, 77.3 µM (inactive); in the experiment with HOP-62 it was 43.8 µM (inactive); with OVCAR-5, > 100 µM (inactive); with KM12, > 100 µM (inactive). Besides, the GI50 in the experiment with Hs-578T is > 100 µM (inactive).
With `Cc1nc2ccccc2c(=O)n1NC(=O)c1ccccn1`, the GI50 with SK-MEL-5, with UACC-257, in the experiment on DU-145, with UACC-62, in the experiment with IGROV-1 and in the experiment on SF-268 was > 100 µM (inactive) each time. The GI50 in the experiment on OVCAR-8, in the experiment on MDA-N, in the experiment with OVCAR-3, with T47D, in the experiment on BT-549 and in the experiment with NCI-H460 was > 100 µM (inactive) each time. The GI50 in the experiment on Malme-3M, with SK-MEL-28, in the experiment with A498, with HOP-62, in the experiment on KM12 and with Hs-578T was > 100 µM (inactive) throughout.
Take `CCOC(=O)C(Cc1ccc(OC(=O)c2ccc(OC)cc2)cc1)NC(=O)C(F)(F)F` (centres undefined): the GI50 in the experiment with SK-MEL-5 was > 100 µM (inactive); in the experiment on UACC-257, > 100 µM (inactive); in the experiment on DU-145 it was > 100 µM (inactive); in the experiment with UACC-62, > 100 µM (inactive); in the experiment on IGROV-1 it was 45.3 µM (inactive); with SF-268, 35.6 µM (inactive). In addition, the GI50 in the experiment on OVCAR-8, with MDA-N, with OVCAR-3, in the experiment on T47D, in the experiment with BT-549 and in the experiment on NCI-H460 was > 100 µM (inactive) each time. In addition, the GI50 with Malme-3M was > 100 µM (inactive); in the experiment with CAKI-1 it was > 100 µM (inactive); in the experiment on A498, > 100 µM (inactive); with HOP-62 it was 35.5 µM (inactive); with OVCAR-5, > 100 µM (inactive); in the experiment with KM12, > 100 µM (inactive). The GI50 in the experiment with Hs-578T is > 100 µM (inactive).
As to `CCOC(=O)CNC(=O)C(CCC(=O)NO)NC(=O)CCC(N)C(=O)O` (centres undefined) (γGlu-Glu(NHOH)-Gly-OEt; configuration not given here), the GI50 with SK-MEL-5, with UACC-257, in the experiment with DU-145, with UACC-62, in the experiment with IGROV-1 and with SF-268 was > 100 µM (inactive) in each case. The GI50 with OVCAR-8, with MDA-N, with OVCAR-3, in the experiment with T47D, in the experiment with BT-549 and in the experiment with NCI-H460 was > 100 µM (inactive) each time. Moreover, the GI50 in the experiment on SK-MEL-28, in the experiment on CAKI-1, with A498, in the experiment with HOP-62, in the experiment with OVCAR-5 and in the experiment with KM12 was > 100 µM (inactive) each time. Besides, the GI50 in the experiment with Hs-578T is > 100 µM (inactive).
